Data from patent publication US4542021A, “Antitumor compositions for non-injection administration” (Yamasa Shoyu Kabushiki Kaisha, priority 1978, dated 1985).
Where a name gives a salt, the structure may show the parent alone. Read-outs that look alike come from different tables or passages of the source.

Key:
[1] = Acute toxicity test, oral (Test Example 5); design: species or system ICR-JCL mice; details: mouse, in vivo, neutralized ester, male mice, 14th day
Method: An ara-CMP ester was neutralized and dissolved in saline containing 0.5% of carboxymethylcellulose, and the resulting solution was orally administered to ICR-JCL mice (males, 24 to 26 g) in a dose of 0.2 ml per 10 g of each mouse's body weight.

L1210 leukemia = test: Therapeutic test on L1210 leukemia (oral, once a day); type: in vivo, BDF1 mice; details: Mus musculus, read-out: % ILS (increase in life span)
Method: The L1210 leukemic cell suspension (1×10^5 cells/0.2 ml) was implanted intraperitoneally in BDF1 mice (males, 18 to 22 g, females, 16 to 20 g) (7 mice per group). From 24 hours after the implantation to the 5th day thereafter, the predetermined doses of the compounds to be tested were orally administered to the mice consecutively once a day. The compounds to be tested were dissolved or suspended in a phosphate-bufferedsalt solution (PBS) containing 0.5% carboxymethylcellulose, and given at a dose rate of 0.1 ml per 10 g of each mouse's body weight. To a control group, only the same solvent as used for the dissolution of the compounds to be tested was administered in the same way. The mean survival times (MST) for each group were calculated, and the corresponding increase in life span (%ILS) was obtained in accordance with the following formula, the results of which are shown in Table 1. [formula]

L1210 leukemic cells [2] = test: Experimental tumor proliferation model in the lymph nodes, single administration on sixth day; type: in vivo, BDF1 mice; details: ip, once on sixth day
Method: (§1) L1210 leukemic cells (1×10^6 cells/0.05 ml) were implanted to the right inner-thigh hypoderms of BDF1 mice (males, 18 to 22 g). From one day after the transplantation, the compounds to be tested were administered intraperitoneally or orally to the mice once a day consecutively for 6 days. The compounds being tested were dissolved in a phosphate-buffered salt solution (PBS) containing 0.5% carboxymethylcellulose to a suitable concentration, and administered to the mice at a dose rate of 0.1 ml per 10 g of each mouse's body weight. The increases in life span (%ILS) were calculated similarly as in Test Example 1.
Furthermore, in a similar manner, each of the test compounds was administered only once on the sixth day after implantation.

B16 melanoma = test: Effectiveness against B16 melanoma (oral, 3 times a week); type: in vivo, BDF1 mice
Method: The B16 melanoma cells (1×10^6 cells) were implanted to the right side-abdominal hypoderms of BDF1 mice (male, 18 to 22 g). From the 13th day after the implantation to death the compounds to be tested were administered orally 3 times a week. The compounds to be tested were dissolved in a phosphate-buffered salt solution (PBS) containing 0.5% carboxymethyl-cellulose to a suitable concentration, and given to the mice at a dose rate of 0.1 ml per 10 g of each mouse's body weight. The increases in life span (%ILS) were calculated in accordance with the same formula as described in Test Example 1.

L1210 leukemic cells [3] = test: Experimental tumor proliferation model in the lymph nodes, once a day for 6 days; type: in vivo, BDF1 mice; details: ip
Method: as §1

[4] = L1210, 720 h, oral, 100 mg/kg/day, > means some mice survived the test period (30 days)
[5] = L1210, 720 h, oral, 200 mg/kg/day, > means some mice survived the test period (30 days)
[6] = L1210, 720 h, oral, 400 mg/kg/day, > means some mice survived the test period (30 days)

Q: What does the source list for `CCCCCCCCCCCCCCCCCCCCOP(=O)(O)OC[C@H]1O[C@@H](n2ccc(N)nc2=O)[C@@H](O)[C@@H]1O` [C20-ara-CMP ester, ara-CMP-eicosyl ester]?
A: LD50 at 336 h [1]: 2720 mg/kg; ILS at 100 mg/kg/day (L1210 leukemia; [4]): 126%; ILS at 200 mg/kg/day (L1210 leukemia; [5]): > 199%; ILS at 6.25 mg/kg/day (L1210 leukemia; L1210, oral, 6.25 mg/kg/day): 19%; ILS at 12.5 mg/kg/day (L1210 leukemia; L1210, oral): 39%; ILS at 25 mg/kg/day (L1210 leukemia; L1210, oral): 60%; ILS at 50 mg/kg/day (L1210 leukemia; L1210, oral): 90%

Q: With `CCCCCCCCCCCCCCCCCCCCCCCOP(=O)(O)OC[C@H]1O[C@@H](n2ccc(N)nc2=O)[C@@H](O)[C@@H]1O` [C23-ara-CMP ester, ara-CMP-tricosyl ester] as the molecule, how does the ILS at 100 mg/kg/day (L1210 leukemia; [4]) read?
A: The ILS at 100 mg/kg/day was 81%.

Q: And the ILS at 200 mg/kg/day (L1210 leukemia; [5])?
A: Its ILS at 200 mg/kg/day is 110%.

Q: What about the ILS at 400 mg/kg/day (L1210 leukemia; [6]) of the same molecule?
A: The ILS at 400 mg/kg/day was 128%.

Q: What about the ILS at 12.5 mg/kg/day (L1210 leukemia; L1210, oral) of the same molecule?
A: Its ILS at 12.5 mg/kg/day is 29%.

Q: What about the ILS at 25 mg/kg/day (L1210 leukemia; L1210, oral) of the same molecule?
A: Its ILS at 25 mg/kg/day is 51%.

Q: And the ILS at 50 mg/kg/day (L1210 leukemia; L1210, oral)?
A: The ILS at 50 mg/kg/day was 65%.

Q: Which “Increase in life span (% ILS)” value (L1210 leukemic cells [2]; 250 mg/kg) does the source give for `Nc1ccn([C@@H]2O[C@H](CO)[C@@H](O)[C@@H]2O)c(=O)n1` [ara-C (hydrochloride), 1-β-D-arabinofuranosyl cytosine, reference compound] here?
A: The value was 36%.

Q: What about the “Mean survival time (MST ± SE)” value (L1210 leukemic cells [2]; 250 mg/kg) of the same molecule?
A: Its value is 9.9 ± 0.13.

Q: What about the “Increase in life span (% ILS)” value (L1210 leukemic cells [2]; 500 mg/kg) of the same molecule?
A: Its value is 49%.

Q: What about the “Mean survival time (MST ± SE)” value (L1210 leukemic cells [2]; 500 mg/kg) of the same molecule?
A: Its value is 10.9 ± 0.23.

Q: What about the “Increase in life span (% ILS)” value (B16 melanoma; 100 mg/kg) of the same molecule?
A: Its value is 22%.

Q: What about the “Mean survival time (MST ± SE)” value (B16 melanoma; 100 mg/kg) of the same molecule?
A: Its value is 26.8 ± 1.50.

Q: What about the “Increase in life span (% ILS)” value (B16 melanoma; 200 mg/kg) of the same molecule?
A: Its value is -5%.

Q: What about the “Mean survival time (MST ± SE)” value (B16 melanoma; 200 mg/kg) of the same molecule?
A: The value was 21.0 ± 1.76.

Q: And the “Increase in life span (% ILS)” value (B16 melanoma; 400 mg/kg)?
A: The value was 1%.

Q: And the “Mean survival time (MST ± SE)” value (B16 melanoma; 400 mg/kg)?
A: Its value is 22.2 ± 2.82.

Q: What about the “Increase in life span (% ILS)” value (L1210 leukemic cells [3]; 50 mg/kg/day) of the same molecule?
A: Its value is 101%.

Q: And the “Mean survival time (MST ± SE)” value (L1210 leukemic cells [3]; 50 mg/kg/day)?
A: Its value is 13.9 ± 0.59.

Q: What about the “Increase in life span (% ILS)” value (L1210 leukemic cells [3]; 100 mg/kg/day) of the same molecule?
A: The value was 110%.

Q: And the “Mean survival time (MST ± SE)” value (L1210 leukemic cells [3]; 100 mg/kg/day)?
A: Its value is 14.5 ± 0.62.

Q: What about the ILS at 100 mg/kg/day (L1210 leukemia; [4]) of the same molecule?
A: The ILS at 100 mg/kg/day was 22%.

Q: What about the ILS at 200 mg/kg/day (L1210 leukemia; [5]) of the same molecule?
A: The ILS at 200 mg/kg/day was 34%.

Q: What about the ILS at 400 mg/kg/day (L1210 leukemia; [6]) of the same molecule?
A: The ILS at 400 mg/kg/day was 67%.

Q: For `CCCCCCCCCCOP(=O)(O)OC[C@H]1O[C@@H](n2ccc(N)nc2=O)[C@@H](O)[C@@H]1O` [ara-CMP decyl ester, reference compound], which ILS at 100 mg/kg/day (L1210 leukemia; [4]) is on record?
A: The ILS at 100 mg/kg/day was 8%.

Q: And the ILS at 200 mg/kg/day (L1210 leukemia; [5])?
A: The ILS at 200 mg/kg/day was 36%.

Q: What about the ILS at 400 mg/kg/day (L1210 leukemia; [6]) of the same molecule?
A: Its ILS at 400 mg/kg/day is 39%.

Q: And the ILS at 25 mg/kg/day (L1210 leukemia; L1210, oral)?
A: Its ILS at 25 mg/kg/day is 0%.

Q: And the ILS at 50 mg/kg/day (L1210 leukemia; L1210, oral)?
A: The ILS at 50 mg/kg/day was 4%.

Q: What does the source list for `CCCCCCCCCCCCCCCCCCCCCCCCCCOP(=O)(O)OC[C@H]1O[C@@H](n2ccc(N)nc2=O)[C@@H](O)[C@@H]1O` [ara-CMP hexacosyl ester, reference compound]?
A: ILS at 100 mg/kg/day (L1210 leukemia; [4]): 27%; ILS at 200 mg/kg/day (L1210 leukemia; [5]): 52%; ILS at 400 mg/kg/day (L1210 leukemia; [6]): 86%; ILS at 25 mg/kg/day (L1210 leukemia; L1210, oral): 14%; ILS at 50 mg/kg/day (L1210 leukemia; L1210, oral): 23%

Q: Which ILS at 100 mg/kg/day (L1210 leukemia; L1210, po, 720 h) does the source give for `COP(=O)(O)OC[C@H]1O[C@@H](n2ccc(N)nc2=O)[C@@H](O)[C@@H]1O` [ara-CMP methyl ester, reference compound] here?
A: Its ILS at 100 mg/kg/day is 13%.

Q: What about the ILS at 200 mg/kg/day (L1210 leukemia; L1210, po, 720 h) of the same molecule?
A: Its ILS at 200 mg/kg/day is 48%.

Q: And the ILS at 400 mg/kg/day (L1210 leukemia; L1210, po, 720 h)?
A: The ILS at 400 mg/kg/day was 65%.

Q: Which ILS at 100 mg/kg/day (L1210 leukemia; [4]) does the source give for `CCCCCCCCCCCOP(=O)(O)OC[C@H]1O[C@@H](n2ccc(N)nc2=O)[C@@H](O)[C@@H]1O` [ara-CMP undecyl ester, reference compound] here?
A: The ILS at 100 mg/kg/day was 31%.

Q: What about the ILS at 200 mg/kg/day (L1210 leukemia; [5]) of the same molecule?
A: Its ILS at 200 mg/kg/day is 78%.

Q: And the ILS at 25 mg/kg/day (L1210 leukemia; L1210, oral)?
A: Its ILS at 25 mg/kg/day is 12%.

Q: What about the ILS at 50 mg/kg/day (L1210 leukemia; L1210, oral) of the same molecule?
A: The ILS at 50 mg/kg/day was 27%.

Q: Which results are given for `Nc1ccn([C@@H]2O[C@H](COP(=O)(O)O)[C@@H](O)[C@@H]2O)c(=O)n1` [ara-CMP, arabinofuranosylcytosine-5'-phosphate, reference compound]?
A: ILS at 100 mg/kg/day (L1210 leukemia; [4]): 21%; ILS at 200 mg/kg/day (L1210 leukemia; [5]): 57%; ILS at 400 mg/kg/day (L1210 leukemia; [6]): 73%; ILS at 50 mg/kg/day (L1210 leukemia; L1210, oral): 8%
